Data as given in patent publication US6608107B2, “Methods and compositions to treat conditions associated with neovascularization” (Wackvom Limited, priority 2000, dated 2003).
Several values for one entry are separate records, joined by “and”; a condition that tells them apart may be missing. Identical values can stand only once.

How the values were obtained:
[1] = Organ distribution of gossypol enantiomers; conditions: in vivo
[2] = test system: endothelial cells; test: Endothelial Cell Assay (inhibition of endothelial cell growth); format: cell-based; conditions: for Endothelial cell assay reading, samples 1-5: raw reading per sample
Procedure: The assays were carried out according to the procedures of Connally, et al. (1986) Anal. Biochem. 152:136-4 with modifications (Liang and Wong (1999) ANGIOGENESIS: FROM THE MOLECULAR TO INTEGRATIVE PHARMACOLOGY edited by Maradoudakis, Kluwer Academic/Plenum. Publishers, New York).

Compound: Cc1cc2c(C(C)C)c(O)c(O)c(C=O)c2c(O)c1-c1c(C)cc2c(C(C)C)c(O)c(O)c(C=O)c2c1O [(+) gossypol]
- organs in which the enantiomer concentrates [1]: concentrates in the kidneys

Compound: Cc1cc2c(C(C)C)c(O)c(O)c(C=O)c2c(O)c1-c1c(C)cc2c(C(C)C)c(O)c(O)c(C=O)c2c1O [(−) gossypol]
- organs in which the enantiomer concentrates [1]: concentrates in the major organs such as the heart, spleen and muscles

Compound: Cc1cc2c(C(C)C)c(O)c(O)c(C=O)c2c(O)c1-c1c(C)cc2c(C(C)C)c(O)c(O)c(C=O)c2c1O [Gossypol Acetate, gossypol acetate]
- Inhibition ([2]; Gossypol Acetate, first column (concentration not given)): 46.2%
- Inhibition ([2]; Gossypol Acetate, second column (concentration not given)): 21.3%
- Endothelial cell assay reading, samples 1-5 ([2]; Gossypol Acetate): 0.3289 and 0.3165 and 0.3065 and 0.3035 and 0.3269

Compound: Cc1cc2c(C(C)C)c(O)c(O)c(C=O)c2c(O)c1-c1c(C)cc2c(C(C)C)c(O)c(O)c(C=O)c2c1O [Gossypol]
- Endothelial cell assay reading, samples 1-5 ([2]; Concentration of Gossypol: 25 mM): 0.0112 and 0.0078 and 0.0057 and 0.0068 and 0.0076
- inhibition at 25000 µM ([2]; Endothelial cell, Concentration of Gossypol: 25 mM): 97.6%
